Results on four compounds are retold here after publication PMC10892836, “Hybrid Molecules of Azithromycin with Chloramphenicol and Metronidazole: Synthesis and Study of Antibacterial Properties” (Pharmaceuticals, 2024).

pKd: −log10 of the molar value. Values after ≈ are worked out from the molar mass of the structure shown. Values joined by “and” are separate entries in the source; they are usually repeats but may differ in a detail not shown here. Equal values may be shown once. A value given as a limit tells only on which side of the number the result lay.

The test system of experiment [1] is Escherichia coli ATCC 25922. The experiment can be described thus: MIC, broth microdilution (CLSI). The format is cell-based. As to conditions: ATCC25922, E. coli ATCC 25922. The procedure: (§1) Minimum inhibitory concentration (MIC) values for facultative anaerobic bacteria were determined using the broth microdilution method outlined in the CLSI guidelines. Initially, all compounds were dissolved in dimethyl sulfoxide (DMSO) to achieve a concentration of 10 mg/mL. Subsequently, they were diluted with the Mueller–Hinton nutrient broth (MHB) supplemented with 5% defibrinated horse blood (for Streptococcus spp.) to a concentration of 64 μg/mL. Following 2-fold serial dilutions of the substances, bacterial cultures in the log growth phase were added to 96-well plates at a concentration of 2.5–5 × 10^5 CFU/mL, and the plates were incubated at 37 °C for 16–20 h.
(§2) Minimum inhibitory concentration (MIC) was defined as the lowest concentration of a chemical compound that inhibits the visible growth of the bacterial strain. At least three replicates of MIC measurements were performed.

Experiment [2] concerns Staphylococcus aureus ATCC 29213. The experiment can be described thus: MIC, broth microdilution (CLSI). The format is cell-based. As to conditions: ATCC29213, S. aureus ATCC 29213. The procedure: as §1, §2
Experiment [3] relates to Streptococcus pneumoniae ATCC 49619. The experiment can be described thus: MIC, broth microdilution (CLSI). Format: cell-based. Particulars: ATCC49619, S. pneumoniae ATCC 49619, Tables 2 and 3. As to the method: as §1, §2
For another experiment, the system named is E. coli ΔtolC pERMZα. The experiment can be described thus: MIC, broth microdilution, E. coli ΔtolC panel. Format: cell-based. As to conditions: Escherichia coli. The procedure:
(§3) The E. coli ΔtolC strain was also transformed with the pErmC, pErmCL-ErmC, and pERMZα plasmids. The resulting strains were grown at 37 °C in LB medium supplied with 100 μg/mL ampicillin.
(§4) MIC values for a panel of E. coli ΔtolC strains were determined via the broth microdilution assay as described here with minor modifications. Briefly, the overnight E. coli culture was diluted to an OD600 of 0.01 in the fresh LB medium supplied with 100 μg/mL ampicillin, if required. Then, the cells were additionally incubated for 1–1.5 h at 37 °C with shaking at 200 rpm (Shaker-Incubator ES-20/80, BioSan, Riga, Latvia). Meanwhile, 100 μL of the liquid growth medium was placed in each well of a 96-well sterile plate (200 μL was placed in column 1). Solutions of tested compounds were added in the first column of the plate at 2 times the final concentration of 200 μg/mL. Then, 2-fold serial dilutions were performed. Immediately before use, bacterial inoculum was diluted (1:100) in the growth medium, and 100 μL of it was transferred in each well except for the sterility control column. The plate was incubated overnight (16–20 h) at 37 °C with constant shaking at 200 rpm (Shaker-Incubator ES-20/80, BioSan, Riga Latvia). Cell growth was assessed by scanning the OD600 with a VICTOR X5 Multilabel Plate Reader (PerkinElmer, Waltham, MA, USA).
as §2

The next experiment concerns E. coli ΔtolC pErmC. The experiment can be described thus: MIC, broth microdilution, E. coli ΔtolC panel. The format is cell-based. Particulars: Escherichia coli. As to the method: as §3, §4, §2
Experiment [4] deals with E. coli ΔtolC pErmCL-ErmC. The experiment can be described thus: MIC, broth microdilution, E. coli ΔtolC panel. As to conditions: for MIC: Escherichia coli. Format: cell-based. As to the method: In order to create the construct pErmCL-ErmC, the vector backbone was amplified using pZa-fwd (5′-TAAGAATTCTCTAGCCCG-3′) and pZa-rev (5′-[…]-3′) primers, and the pERMZα plasmid as a template. The ermC gene was amplified from the pERMCTP plasmid with ErmC-fwd (5′-[…]-3′) and ErmC-rev (5′-TAGGCGGGCTAGAGAATTC-3′) primers. The joining of two DNA fragments was performed using the NEBuilder® HiFi DNA Assembly Master Mix (New England Biolabs, Ipswich, MA, USA). Sequences of intermediate products and the final construct were confirmed by Sanger sequencing with appropriate primers.
as §3, §4, §2

For the next experiment, the system named is E. coli ΔtolC. The experiment can be described thus: MIC, broth microdilution, E. coli ΔtolC panel. The format is cell-based. As to conditions: for MIC: Escherichia coli.
Text: The E. coli JW5503 strain with a deletion of the tolC gene (referred to here as E. coli ΔtolC) was kindly provided by Prof. Hironori Niki, National Institute of Genetics, Japan. The E. coli BW25113 strain with a partial deletion of the lptD gene, codons 330 to 352 (referred to here as E. coli lptD^mut) was kindly provided by Prof. Alexander S. Mankin, University of Illinois, Chicago, IL, USA [44]. The E. coli ΔtolC strain was transformed with the pDualrep2 (Amp^R) plasmid, whereas the E. coli lptD^mut strain was transformed with the pDualrep2 (Kan^R) plasmid (not yet published). Both E. coli strains were grown at 37 °C in Luria–Bertani (LB) medium supplemented with either 100 μg/mL ampicillin or 50 μg/mL kanamycin.
as §4, §2

Experiment [5] concerns cell-free bacterial translation system based on the E. coli S30 lysate. The experiment can be described thus: In vitro translation in a cell-free bacterial system (firefly luciferase synthesis). The format is biochemical. Particulars: for Relative luciferase activity (relative maximal rate of Fluc accumulation): final concentration 5 μM, water control = 100%. As to the method:
The inhibition of firefly luciferase (Fluc) synthesis by new azithromycin derivatives was assessed with the E. coli S30 Extract System for Linear Templates (Promega, Madison, WI, USA). Each reaction (5 μL total volume) was supplied with 0.1 mM mixture of all canonical amino acids, 4 U of RiboLock RNase Inhibitor (Thermo Fisher Scientific, Waltham, MA, USA), 0.1 mM of D-luciferin (Sigma-Aldrich, Burlington, MA, USA), 50 ng of firefly luciferase (Fluc) mRNA, and a chemical compound at a final concentration, as indicated in the main text, or nuclease-free water instead. Before the addition of mRNA, reaction tubes were pre-incubated at RT for 5 min and then placed back on ice. After the addition of mRNA, reaction mixtures were immediately subjected to continuous chemiluminescence measurement using the VICTOR X5 Multilabel Plate Reader (PerkinElmer, Waltham, MA, USA) at 37 °C for 30 min. Maximal rates of the firefly luciferase (Fluc) accumulation were calculated using the OriginPro 7.5 software. The values were normalized to a positive control (nuclease-free water, assigned a value of 100%). The results were visualized using the QtiPlot software (version 0.9.8.9).

Experiment [6] relates to ribosome stalling on ermCL mRNA. The experiment can be described thus: Toe-printing (primer extension inhibition) analysis on ermCL mRNA. As to conditions: 50 μM (chloramphenicol 30 μM). The format is biochemical. As to the method: The toe-printing (primer extension inhibition) analysis of azithromycin derivatives was carried out essentially as previously described with some minor modifications, as indicated below. The DNA template ErmCL was generated by PCR using two overlapping primers, ErmCL-fwd (5′-[…]-3′) and ErmCL-rev (5′-[…]-3′). Before the addition of the DNA template to reaction mixtures at the in vitro translation step, tubes were pre-incubated at RT for 5 min. Moreover, phenol-chloroform extraction of reverse transcription products was replaced with DNA purification using the QIAquick® PCR Purification Kit (Qiagen, Hilden, Germany) according to the manufacturer’s protocol.
Figure 4 Toe-printing (or primer extension inhibition) analysis of azithromycin derivatives on ermCL mRNA. Ribosome stalling is detected via reverse transcription in a cell-free bacterial transcription–translation coupled system. The toe-printing bands are marked with colored arrowheads, and the A-site codons (except for the start codon, P-site codon is indicated) occupied by the stalled ribosomes are indicated in the mRNA sequence with the corresponding colors. The stop codon is marked with an asterisk. All compounds but chloramphenicol (CLM) were tested at 50 μM. Chloramphenicol (CLM) was tested at 30 μM. DMSO was used as a negative control at 0.25% final concentration. Thiostrepton (THS) was used to indicate the translation start site.

Experiment [7] has as its system Streptococcus agalactiae 1Cp. The experiment can be described thus: MIC, broth microdilution (CLSI). The format is cell-based. Particulars: S. agalactiae 1Cp, Table 3. As to the method:
as §1, §2

Experiment [8] relates to Clostridium sporogenes ATCC 19404. The experiment can be described thus: MIC, agar dilution, anaerobic bacteria (CLSI M11-A9). Format: cell-based. Particulars: ATCC19404, C. sporogenes ATCC 19404, anaerobic. The procedure: The antimicrobial activity against anaerobic bacteria was evaluated using the agar dilution method in accordance with the CLSI document M11-A9 [58]. Twofold serial dilutions of compounds, at 10 times the desired concentration, were prepared in water and diluted (1:10) with the Brucella Agar medium containing 5% defibrinated horse blood, 5 mg/L hemin, and 1 mg/L vitamin K. The resulting plates were inoculated with approximately 10^5 CFU per spot using a replicator and incubated anaerobically at 36 °C for 48 h.
as §2

Experiment [9] concerns Propionibacterium acnes 55. The experiment is described as above. The format is cell-based. As to conditions: Cutibacterium acnes; P. acnes 55, anaerobic clinical isolate.
The next experiment relates to 70S E. coli ribosomes. The experiment can be described thus: Competition-binding assay with BODIPY-ERY (fluorescence anisotropy). As to conditions: displacement of BODIPY-ERY; means, 95% confidence intervals; read-out: Apparent dissociation constant KD. As to the method:
Affinity of compounds to the 70S E. coli ribosomes (isolated from the E. coli MRE600 strain according to a published procedure) was evaluated with a competition-binding assay using fluorescently labeled erythromycin (BODIPY-ERY) as described earlier. Briefly, BODIPY-ERY (16 nM) was mixed with ribosomes (34 nM) in 384-well plates in the buffer containing 20 mM HEPES-KOH (pH 7.5), 50 mM NH4Cl, 10 mM Mg(CH3CO2)2, 4 mM β-mercaptoethanol, and 0.05% (v/v) Tween-20. Solutions of the tested compounds were added to the obtained complexes to final concentrations from 1 to 1000 nM and incubated for 2 h at 30 °C. The values of fluorescence anisotropy were obtained using the VICTOR X5 Multilabel Plate Reader (PerkinElmer, Waltham, MA, USA). Filters of 485 and 535 nm were used for excitation and emission, respectively. To calculate the apparent dissociation constants, the assumption that the competitive equilibrium binding of two ligands occurs at a single binding site was used. For each compound, at least 2 replicates were performed. Values of apparent dissociation constants are given as means with 95% confidence intervals. The results were visualized using the GraphPad Prism software (version 8.0.1).

Take `O=C(N[C@H](CO)[C@H](O)c1ccc([N+](=O)[O-])cc1)C(Cl)Cl` [CLM, Chloramphenicol]: the MIC in [1] was 8 µg/mL (≈ 24.8 µM); in experiment [2], 8 µg/mL (≈ 24.8 µM); in [3] it was 4 µg/mL (≈ 12.4 µM); against E. coli ΔtolC pERMZα, 1.6 µg/mL (≈ 4.95 µM); in the experiment on E. coli ΔtolC pErmC it was 1.6 µg/mL (≈ 4.95 µM); in experiment [4], 1.6 µg/mL (≈ 4.95 µM). In the experiment with E. coli ΔtolC, this compound showed an MIC of 1.6 µg/mL (≈ 4.95 µM). The “Fold increase in the MIC value on E. coli ΔtolC pErmCL-ErmC compared to E. coli ΔtolC” value in experiment [4] is listed as “no changes in the MIC values”. In [5], the “Relative luciferase activity (relative maximal rate of Fluc accumulation)” value (from here on “Relative luciferase activity”) worked out at 21%. Moreover, the “Ribosome stalling pattern on ermCL mRNA” value in experiment [6] is listed as “strong ribosome stalling when the Ser codon (AGU) occupies the E-site of the ribosome”.

For `CC[C@H]1OC(=O)[C@H](C)[C@@H](O[C@H]2C[C@@](C)(OC)[C@@H](O)[C@H](C)O2)[C@H](C)[C@@H](O[C@@H]2O[C@H](C)C[C@H](N(C)C)[C@H]2O)[C@](C)(O)C[C@@H](C)C(=O)[C@H](C)[C@@H](O)[C@]1(C)O` [ERY, erythromycin], the MIC was 1.6 µg/mL (≈ 2.18 µM) against E. coli ΔtolC pERMZα, more than 200 µg/mL against E. coli ΔtolC pErmC, 50 µg/mL (≈ 68.1 µM) in experiment [4] and 3.1 µg/mL (≈ 4.22 µM) with E. coli ΔtolC. The “Fold increase in the MIC value on E. coli ΔtolC pErmCL-ErmC compared to E. coli ΔtolC” value in [4] was determined as 16 fold. In addition, the “Relative luciferase activity” value in experiment [5] is reported as 0.9%.

For `Cc1ncc([N+](=O)[O-])n1CCO` [MNZ, Metronidazole], the MIC is more than 32 µg/mL in [2]; more than 32 µg/mL in experiment [7]; more than 32 µg/mL in experiment [3]; 8 µg/mL (≈ 46.7 µM) in experiment [8]; more than 32 µg/mL in [9]; more than 200 µg/mL against E. coli ΔtolC pERMZα. The MIC (against E. coli ΔtolC pErmC; in experiment [4]; in the experiment with E. coli ΔtolC) was more than 200 µg/mL throughout. Moreover, the “Inhibition of protein synthesis in vitro” value in experiment [5] (concentration of 50 μM (Figure 2B)) was “no inhibition was observed”.

Regarding `CC[C@H]1OC(=O)[C@H](C)[C@@H](O[C@H]2C[C@@](C)(OC)[C@@H](OC(=O)NCCN)[C@H](C)O2)[C@H](C)[C@@H](O[C@@H]2O[C@H](C)C[C@H](N(C)C)[C@H]2OC(C)=O)[C@](C)(O)C[C@@H](C)CN(C)[C@H](C)[C@H]2OC(=O)O[C@@]21C` [compound 6, 2′-O-Acetyl-4′′-O-((2-aminoethyl)carbamoyl)-11,12-cyclic carbonate of azithromycin], the MIC in [1] is more than 32 µg/mL; in experiment [2], 32 µg/mL (≈ 35.4 µM); in [3], more than 32 µg/mL; against E. coli ΔtolC pERMZα it was 3.1 µg/mL (≈ 3.43 µM); with E. coli ΔtolC pErmC it was more than 200 µg/mL; in experiment [4] it was 6.3 µg/mL (≈ 6.98 µM). In the experiment with E. coli ΔtolC, this compound yielded an MIC of 3.1 µg/mL (≈ 3.43 µM). Besides, in the experiment with E. coli ΔtolC (toward E. coli strains (Table 4)), the “Times weaker than the parental antibiotic (azithromycin), MIC” value is listed as 2–4 times. For the same compound, the “Relative luciferase activity” value in experiment [5] is reported as 46%. The negative logarithm of the Kd (pKd) in the experiment with 70S E. coli ribosomes is 8.19 and 8.22. For the same compound, the “Ribosome stalling pattern on ermCL mRNA” value in [6] was “premature ribosome stalling at the first Phe codon (UUU)”.
